Laboratory results from the kinase profiling compilation of Christmann-Franck et al. (2016).
Several values for one entry are separate records, joined by “and”; a condition that tells them apart may be missing. Equal values may be shown once. Values belong to the compound of their own block, whether it stands above or below them.

Assays:
Assay in all cases: Caliper, Mobility shift assay off-chip
[1] = target: ROCK2 (human) (UniProt O75116)
[2] = target: AURKA (human) (UniProt O14965)
[3] = target: FLT3 (human) (UniProt P36888)
[4] = target: CSNK1A1 (human) (UniProt P48729)
[5] = target: MAPK1 (human) (UniProt P28482)
Chain of MAPK1 (human) (P28482 whole entry, looked up): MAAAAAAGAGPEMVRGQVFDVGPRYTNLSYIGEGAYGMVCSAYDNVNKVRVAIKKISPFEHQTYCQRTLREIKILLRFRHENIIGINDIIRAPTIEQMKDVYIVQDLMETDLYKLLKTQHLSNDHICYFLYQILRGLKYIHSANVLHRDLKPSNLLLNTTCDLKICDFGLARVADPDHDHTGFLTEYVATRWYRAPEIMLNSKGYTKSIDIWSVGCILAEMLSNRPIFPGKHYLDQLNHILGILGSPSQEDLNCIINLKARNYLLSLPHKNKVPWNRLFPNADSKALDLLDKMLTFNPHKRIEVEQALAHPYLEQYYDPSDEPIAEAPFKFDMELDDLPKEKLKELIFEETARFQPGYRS

[6] = target: RPS6KA4 KD1 KD2 (human) (UniProt O75676)
[7] = target: DCLK2 (human) (UniProt Q8N568)
Chain of DCLK2 (human) (Q8N568 whole entry, looked up): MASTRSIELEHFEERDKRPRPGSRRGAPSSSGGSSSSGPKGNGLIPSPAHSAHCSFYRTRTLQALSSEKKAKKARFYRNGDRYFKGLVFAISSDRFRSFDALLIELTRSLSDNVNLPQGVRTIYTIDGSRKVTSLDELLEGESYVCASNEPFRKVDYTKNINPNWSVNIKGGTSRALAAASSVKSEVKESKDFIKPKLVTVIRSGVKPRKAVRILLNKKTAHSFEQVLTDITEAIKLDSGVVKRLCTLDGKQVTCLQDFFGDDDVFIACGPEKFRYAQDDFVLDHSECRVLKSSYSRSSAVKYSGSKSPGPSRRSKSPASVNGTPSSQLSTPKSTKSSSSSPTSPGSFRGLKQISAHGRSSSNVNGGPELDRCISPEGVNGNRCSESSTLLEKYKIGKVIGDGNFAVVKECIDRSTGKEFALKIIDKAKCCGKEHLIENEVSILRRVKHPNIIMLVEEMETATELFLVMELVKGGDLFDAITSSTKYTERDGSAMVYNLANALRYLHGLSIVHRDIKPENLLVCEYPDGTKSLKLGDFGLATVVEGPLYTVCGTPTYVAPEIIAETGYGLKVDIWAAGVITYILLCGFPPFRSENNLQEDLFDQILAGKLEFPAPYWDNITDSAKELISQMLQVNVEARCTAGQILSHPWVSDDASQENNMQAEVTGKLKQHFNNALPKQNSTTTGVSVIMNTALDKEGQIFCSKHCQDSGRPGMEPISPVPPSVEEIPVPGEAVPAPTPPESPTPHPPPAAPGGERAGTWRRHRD

[8] = target: HCK (human) (UniProt P08631)
[9] = target: FGFR4 (human) (UniProt P22455)
Chain of FGFR4 (human) (P22455 whole entry, looked up): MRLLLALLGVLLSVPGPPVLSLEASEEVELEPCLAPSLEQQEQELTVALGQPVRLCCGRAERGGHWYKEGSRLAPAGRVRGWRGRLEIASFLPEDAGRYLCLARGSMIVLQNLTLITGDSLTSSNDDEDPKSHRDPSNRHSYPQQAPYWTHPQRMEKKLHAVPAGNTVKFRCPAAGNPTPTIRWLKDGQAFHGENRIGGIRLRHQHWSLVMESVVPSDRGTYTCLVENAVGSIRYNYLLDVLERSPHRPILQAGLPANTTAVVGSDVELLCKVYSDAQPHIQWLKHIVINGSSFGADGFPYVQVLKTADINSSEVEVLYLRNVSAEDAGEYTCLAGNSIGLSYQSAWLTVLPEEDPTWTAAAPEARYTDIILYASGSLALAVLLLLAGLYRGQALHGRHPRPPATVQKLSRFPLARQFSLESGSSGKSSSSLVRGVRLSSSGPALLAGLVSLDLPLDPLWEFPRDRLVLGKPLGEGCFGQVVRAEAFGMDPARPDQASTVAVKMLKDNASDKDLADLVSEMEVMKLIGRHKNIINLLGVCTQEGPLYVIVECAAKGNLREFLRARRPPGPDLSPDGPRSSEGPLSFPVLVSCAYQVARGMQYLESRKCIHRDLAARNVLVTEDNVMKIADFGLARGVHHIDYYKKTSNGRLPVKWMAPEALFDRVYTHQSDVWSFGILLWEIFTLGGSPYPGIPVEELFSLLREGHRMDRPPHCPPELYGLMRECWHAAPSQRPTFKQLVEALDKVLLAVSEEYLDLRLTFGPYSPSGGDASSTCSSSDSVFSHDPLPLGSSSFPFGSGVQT

[10] = target: RPS6KA1 KD1 KD2 (human) (UniProt Q15418)
[11] = target: BTK (human) (UniProt Q06187)
[12] = target: BRSK2 (human) (UniProt Q8IWQ3)
[13] = target: PRKG1 (human) (UniProt Q13976)
[14] = target: MARK3 (human) (UniProt P27448)
[15] = target: CHEK1 (human) (UniProt O14757)
[16] = system: ABL1 (human), P00519 [T315I]
[17] = target: FGFR2 (human) (UniProt P21802)
[18] = target: AKT3 (human) (UniProt Q9Y243)
[19] = target: BMX (human) (UniProt P51813)
[20] = target: SGK3 (human) (UniProt Q96BR1)
Chain of SGK3 (human) (Q96BR1 whole entry, looked up): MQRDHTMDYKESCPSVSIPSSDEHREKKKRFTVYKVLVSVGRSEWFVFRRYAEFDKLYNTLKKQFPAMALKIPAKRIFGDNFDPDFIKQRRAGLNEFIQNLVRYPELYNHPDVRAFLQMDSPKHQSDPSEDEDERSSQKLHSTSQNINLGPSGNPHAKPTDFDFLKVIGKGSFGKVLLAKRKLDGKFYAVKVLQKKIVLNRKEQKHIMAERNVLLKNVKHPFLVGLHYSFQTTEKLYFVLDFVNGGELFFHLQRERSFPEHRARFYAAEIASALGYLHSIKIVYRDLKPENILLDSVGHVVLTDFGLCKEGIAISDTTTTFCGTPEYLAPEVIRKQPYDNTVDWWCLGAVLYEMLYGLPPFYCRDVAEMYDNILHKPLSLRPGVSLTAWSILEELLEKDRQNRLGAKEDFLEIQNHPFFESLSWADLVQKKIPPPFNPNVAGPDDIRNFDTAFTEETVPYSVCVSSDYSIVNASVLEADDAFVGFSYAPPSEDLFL

[21] = target: RAF1 (human) (UniProt P04049)
[22] = target: MAP4K4 (human) (UniProt O95819)
[23] = target: KDR (human) (UniProt P35968)
Chain of KDR (human) (P35968 whole entry, looked up): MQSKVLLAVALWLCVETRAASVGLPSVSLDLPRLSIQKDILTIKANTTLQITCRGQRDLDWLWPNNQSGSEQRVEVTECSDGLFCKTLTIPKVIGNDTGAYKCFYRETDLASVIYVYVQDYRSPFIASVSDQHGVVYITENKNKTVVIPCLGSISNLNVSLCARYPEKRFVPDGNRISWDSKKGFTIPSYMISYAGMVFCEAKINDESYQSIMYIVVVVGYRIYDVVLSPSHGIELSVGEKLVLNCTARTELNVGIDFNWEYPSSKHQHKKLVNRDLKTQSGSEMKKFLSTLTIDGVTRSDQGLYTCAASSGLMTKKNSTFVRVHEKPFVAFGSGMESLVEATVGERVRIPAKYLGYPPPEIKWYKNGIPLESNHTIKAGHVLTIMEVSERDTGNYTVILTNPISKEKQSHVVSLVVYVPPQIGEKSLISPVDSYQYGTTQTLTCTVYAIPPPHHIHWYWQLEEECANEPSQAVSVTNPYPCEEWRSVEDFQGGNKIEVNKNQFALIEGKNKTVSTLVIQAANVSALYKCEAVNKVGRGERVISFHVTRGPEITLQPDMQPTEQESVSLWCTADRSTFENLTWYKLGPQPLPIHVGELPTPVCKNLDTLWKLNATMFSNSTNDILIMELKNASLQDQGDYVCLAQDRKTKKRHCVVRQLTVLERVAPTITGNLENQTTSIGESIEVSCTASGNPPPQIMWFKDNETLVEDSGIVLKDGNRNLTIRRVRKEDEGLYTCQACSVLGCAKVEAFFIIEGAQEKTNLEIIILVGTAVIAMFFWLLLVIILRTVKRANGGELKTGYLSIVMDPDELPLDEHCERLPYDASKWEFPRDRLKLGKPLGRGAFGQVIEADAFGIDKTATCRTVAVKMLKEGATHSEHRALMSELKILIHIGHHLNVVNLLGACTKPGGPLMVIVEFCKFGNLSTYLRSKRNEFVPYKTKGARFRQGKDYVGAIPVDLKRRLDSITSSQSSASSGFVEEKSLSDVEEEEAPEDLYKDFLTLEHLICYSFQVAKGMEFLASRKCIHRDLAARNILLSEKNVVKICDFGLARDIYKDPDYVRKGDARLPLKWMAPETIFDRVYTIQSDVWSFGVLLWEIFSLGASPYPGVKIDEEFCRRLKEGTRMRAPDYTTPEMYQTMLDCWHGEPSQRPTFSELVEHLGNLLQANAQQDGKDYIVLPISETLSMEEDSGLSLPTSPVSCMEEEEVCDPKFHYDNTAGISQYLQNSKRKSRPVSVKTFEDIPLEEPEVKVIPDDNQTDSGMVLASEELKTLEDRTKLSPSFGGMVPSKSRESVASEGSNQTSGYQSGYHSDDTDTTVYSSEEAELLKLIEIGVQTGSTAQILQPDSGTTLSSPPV

[24] = target: RPS6KA3 KD1 KD2 (human) (UniProt P51812)
Chain of RPS6KA3 KD1 KD2 (human) (P51812 whole entry, looked up): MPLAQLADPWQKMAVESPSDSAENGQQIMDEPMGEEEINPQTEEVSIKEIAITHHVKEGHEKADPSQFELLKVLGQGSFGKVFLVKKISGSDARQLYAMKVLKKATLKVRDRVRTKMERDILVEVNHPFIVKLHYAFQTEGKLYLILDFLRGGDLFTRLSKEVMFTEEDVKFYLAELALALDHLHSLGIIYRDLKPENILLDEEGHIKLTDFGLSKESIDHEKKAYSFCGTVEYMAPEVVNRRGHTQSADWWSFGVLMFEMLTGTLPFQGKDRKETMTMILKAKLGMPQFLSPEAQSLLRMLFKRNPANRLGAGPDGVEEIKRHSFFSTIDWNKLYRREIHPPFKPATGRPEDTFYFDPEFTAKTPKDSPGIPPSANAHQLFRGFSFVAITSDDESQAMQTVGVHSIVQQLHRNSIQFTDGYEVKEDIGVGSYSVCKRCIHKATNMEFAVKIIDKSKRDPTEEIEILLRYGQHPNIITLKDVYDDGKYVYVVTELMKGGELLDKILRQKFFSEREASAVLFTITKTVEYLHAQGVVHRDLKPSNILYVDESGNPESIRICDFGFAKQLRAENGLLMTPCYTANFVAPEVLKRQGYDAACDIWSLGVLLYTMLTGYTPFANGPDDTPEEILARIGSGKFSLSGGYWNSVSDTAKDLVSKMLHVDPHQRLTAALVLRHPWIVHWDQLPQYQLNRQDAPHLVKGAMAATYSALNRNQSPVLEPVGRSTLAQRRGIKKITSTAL

[25] = target: EGFR (human) (UniProt P00533)
[26] = target: PIM2 (human) (UniProt Q9P1W9)
[27] = target: CAMK4 (human) (UniProt Q16566)
[28] = target: FYN (human) (UniProt P06241)
[29] = system: ABL1 (human), P00519 [Q252H]
[30] = target: SRC (human) (UniProt P12931)
Chain of SRC (human) (P12931 whole entry, looked up): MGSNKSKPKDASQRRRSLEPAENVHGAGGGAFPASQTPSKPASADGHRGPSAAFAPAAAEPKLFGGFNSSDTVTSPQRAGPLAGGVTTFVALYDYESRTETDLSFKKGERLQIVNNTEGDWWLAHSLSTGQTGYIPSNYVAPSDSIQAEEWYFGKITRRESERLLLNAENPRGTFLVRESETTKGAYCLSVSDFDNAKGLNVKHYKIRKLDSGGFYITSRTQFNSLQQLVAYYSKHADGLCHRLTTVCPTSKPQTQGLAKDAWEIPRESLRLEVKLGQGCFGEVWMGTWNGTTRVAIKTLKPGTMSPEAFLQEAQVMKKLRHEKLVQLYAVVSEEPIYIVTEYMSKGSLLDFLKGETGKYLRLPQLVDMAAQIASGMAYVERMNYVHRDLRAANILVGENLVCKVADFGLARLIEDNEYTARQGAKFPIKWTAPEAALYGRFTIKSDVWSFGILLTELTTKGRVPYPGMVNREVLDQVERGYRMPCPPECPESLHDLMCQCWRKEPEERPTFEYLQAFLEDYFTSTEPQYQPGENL

[31] = target: NEK2 (human) (UniProt P51955)
[32] = target: PRKCB1 (human) (UniProt P05771)
[33] = target: AKT1 (human) (UniProt P31749)
[34] = target: PRKCH (human) (UniProt P24723)

inhibition ([1]; compound 0.1 µM): 21.3% | inhibition ([1]; compound 1.0 µM): 20.8% | inhibition ([2]; compound 0.1 µM): 39.7% | inhibition ([2]; compound 1.0 µM): 87.5% | inhibition ([3]; compound 0.1 µM): 13.7% | inhibition ([3]; compound 1.0 µM): 62.9% | inhibition ([4]; compound 0.1 µM): -7.8% | inhibition ([4]; compound 1.0 µM): 7.2% | inhibition ([5]; compound 0.1 µM): -4% | inhibition ([5]; compound 1.0 µM): 1.8% | inhibition ([6]; compound 0.1 µM): -2.2% | inhibition ([6]; compound 1.0 µM): 7.4% | inhibition ([7]; compound 0.1 µM): 8.6% | inhibition ([7]; compound 1.0 µM): 4.1% | inhibition ([8]; compound 0.1 µM): 9.4% | inhibition ([8]; compound 1.0 µM): 14.6% | inhibition ([9]; compound 0.1 µM): 8.9% | inhibition ([9]; compound 1.0 µM): 22.4% | inhibition ([10]; compound 0.1 µM): -2.7% | inhibition ([10]; compound 1.0 µM): 2.1% | inhibition ([11]; compound 0.1 µM): 4.7% | inhibition ([11]; compound 1.0 µM): 4.9% | inhibition ([12]; compound 0.1 µM): -0.7% | inhibition ([12]; compound 1.0 µM): 6.6% | inhibition ([13]; compound 0.1 µM): 8.1% and 4.1% | inhibition ([13]; compound 1.0 µM): 11.8% and 4.9% | inhibition ([14]; compound 0.1 µM): -1.8% | inhibition ([14]; compound 1.0 µM): 5.3% | inhibition ([15]; compound 0.1 µM): 3.6% | inhibition ([15]; compound 1.0 µM): 2.6% | inhibition ([16]; compound 0.1 µM): 3.3% | inhibition ([16]; compound 1.0 µM): 41.1% | inhibition ([17]; compound 0.1 µM): 29.4% | inhibition ([17]; compound 1.0 µM): 76.6% | inhibition ([18]; compound 0.1 µM): 6.2% | inhibition ([18]; compound 1.0 µM): 5.2% | inhibition ([19]; compound 0.1 µM): 1.8% | inhibition ([19]; compound 1.0 µM): 8% | inhibition ([20]; compound 0.1 µM): -5.3% | inhibition ([20]; compound 1.0 µM): 1.1% | inhibition ([21]; compound 0.1 µM): -6.5% | inhibition ([21]; compound 1.0 µM): -0.8% | inhibition ([22]; compound 0.1 µM): 18.6% | inhibition ([22]; compound 1.0 µM): 56.3% | inhibition ([23]; compound 0.1 µM): 33.2% | inhibition ([23]; compound 1.0 µM): 93.1% | inhibition ([24]; compound 0.1 µM): -1.9% | inhibition ([24]; compound 1.0 µM): 12.9% | inhibition ([25]; compound 0.1 µM): -4.8% | inhibition ([25]; compound 1.0 µM): 7% | inhibition ([26]; compound 0.1 µM): 1.2% | inhibition ([26]; compound 1.0 µM): 5.1% | inhibition ([27]; compound 0.1 µM): -0.2% | inhibition ([27]; compound 1.0 µM): 8% | inhibition ([28]; compound 0.1 µM): -0.3% | inhibition ([29]; compound 0.1 µM): 6.9% | inhibition ([29]; compound 1.0 µM): 51.8% | inhibition ([30]; compound 0.1 µM): -3.2% | inhibition ([30]; compound 1.0 µM): 14.2% | inhibition ([31]; compound 0.1 µM): -6% | inhibition ([31]; compound 1.0 µM): -4.9% | inhibition ([32]; compound 0.1 µM): -7.7% | inhibition ([32]; compound 1.0 µM): 8.8% | inhibition ([33]; compound 0.1 µM): -4.1% | inhibition ([33]; compound 1.0 µM): 6.2% | inhibition ([34]; compound 0.1 µM): 10% | inhibition ([34]; compound 1.0 µM): 3.2%
Compound: CN(c1ccc2ccc3ncc(-c4cnn(C)c4)cc3c(=O)c2c1)S(=O)(=O)NCc1ccccn1

inhibition ([1]; compound 0.1 µM): -2.6% | inhibition ([1]; compound 1.0 µM): 4.2% | inhibition ([2]; compound 0.1 µM): 3.7% | inhibition ([2]; compound 1.0 µM): 22.4% | inhibition ([3]; compound 0.1 µM): -5.8% | inhibition ([3]; compound 1.0 µM): -4% | inhibition ([4]; compound 0.1 µM): 5% | inhibition ([4]; compound 1.0 µM): -0.6% | inhibition ([5]; compound 0.1 µM): -1.2% | inhibition ([5]; compound 1.0 µM): 3.7% | inhibition ([6]; compound 0.1 µM): -5.8% | inhibition ([6]; compound 1.0 µM): 1% | inhibition ([7]; compound 0.1 µM): 2% | inhibition ([7]; compound 1.0 µM): 5.8% | inhibition ([8]; compound 0.1 µM): -1.8% | inhibition ([8]; compound 1.0 µM): 3.1% | inhibition ([9]; compound 0.1 µM): -3% | inhibition ([9]; compound 1.0 µM): -3.3% | inhibition ([10]; compound 0.1 µM): -2.2% | inhibition ([10]; compound 1.0 µM): 4% | inhibition ([11]; compound 0.1 µM): 2.1% | inhibition ([11]; compound 1.0 µM): 1.1% | inhibition ([12]; compound 0.1 µM): 3.4% | inhibition ([12]; compound 1.0 µM): -3.3% | inhibition ([13]; compound 0.1 µM): -5% and 4.5% | inhibition ([13]; compound 1.0 µM): -1.6% and 0.1% | inhibition ([14]; compound 0.1 µM): 0.7% | inhibition ([14]; compound 1.0 µM): -4.4% | inhibition ([15]; compound 0.1 µM): -0.6% | inhibition ([15]; compound 1.0 µM): 2.9% | inhibition ([16]; compound 0.1 µM): 2.7% | inhibition ([16]; compound 1.0 µM): 1.3% | inhibition ([17]; compound 0.1 µM): 1.4% | inhibition ([17]; compound 1.0 µM): 7.8% | inhibition ([18]; compound 0.1 µM): -12.5% | inhibition ([18]; compound 1.0 µM): 2.1% | inhibition ([19]; compound 0.1 µM): -10.4% | inhibition ([19]; compound 1.0 µM): 3.2% | inhibition ([20]; compound 0.1 µM): 9% | inhibition ([20]; compound 1.0 µM): 1% | inhibition ([21]; compound 0.1 µM): 3.2% | inhibition ([21]; compound 1.0 µM): -9.1% | inhibition ([22]; compound 0.1 µM): 5% | inhibition ([22]; compound 1.0 µM): -0.2% | inhibition ([23]; compound 0.1 µM): 4.9% | inhibition ([23]; compound 1.0 µM): 16.8% | inhibition ([24]; compound 0.1 µM): 0.7% | inhibition ([24]; compound 1.0 µM): 62.5% | inhibition ([25]; compound 0.1 µM): -5.8% | inhibition ([25]; compound 1.0 µM): 9.3% | inhibition ([26]; compound 0.1 µM): -0.1% | inhibition ([26]; compound 1.0 µM): -3.2% | inhibition ([27]; compound 0.1 µM): -1.7% | inhibition ([27]; compound 1.0 µM): -3.4% | inhibition ([28]; compound 0.1 µM): -4.2% | inhibition ([28]; compound 1.0 µM): 2.7% | inhibition ([29]; compound 0.1 µM): -1.7% | inhibition ([29]; compound 1.0 µM): 8.1% | inhibition ([30]; compound 0.1 µM): 1.1% | inhibition ([30]; compound 1.0 µM): 6.6% | inhibition ([31]; compound 0.1 µM): 6.6% | inhibition ([31]; compound 1.0 µM): 2.7% | inhibition ([32]; compound 0.1 µM): 1.2% | inhibition ([32]; compound 1.0 µM): -12.2% | inhibition ([33]; compound 0.1 µM): -7.2% | inhibition ([33]; compound 1.0 µM): 1.7% | inhibition ([34]; compound 0.1 µM): 7.2% | inhibition ([34]; compound 1.0 µM): -8.7%
Compound: O=C(CCc1ccc2ccc3ncc(C4CCNCC4)cc3c(=O)c2c1)NCc1ccccn1

inhibition ([1]; compound 0.1 µM): 3% | inhibition ([1]; compound 1.0 µM): 2% | inhibition ([2]; compound 0.1 µM): 27.6% | inhibition ([2]; compound 1.0 µM): 75.5% | inhibition ([3]; compound 0.1 µM): 4.2% | inhibition ([3]; compound 1.0 µM): 48.8% | inhibition ([4]; compound 0.1 µM): -2.8% | inhibition ([4]; compound 1.0 µM): -4.1% | inhibition ([5]; compound 0.1 µM): -5.5% | inhibition ([5]; compound 1.0 µM): 0.8% | inhibition ([6]; compound 0.1 µM): 15.2% | inhibition ([7]; compound 0.1 µM): 1.7% | inhibition ([7]; compound 1.0 µM): 8.4% | inhibition ([8]; compound 0.1 µM): -59.1% | inhibition ([8]; compound 1.0 µM): -1.6% | inhibition ([9]; compound 0.1 µM): 21.1% | inhibition ([9]; compound 1.0 µM): 19.6% | inhibition ([10]; compound 0.1 µM): -12.4% | inhibition ([10]; compound 1.0 µM): -3% | inhibition ([13]; compound 0.1 µM): -0.5% and 2.6% | inhibition ([13]; compound 1.0 µM): 9.6% and -5.9% | inhibition ([14]; compound 0.1 µM): -2.4% | inhibition ([14]; compound 1.0 µM): -3.3% | inhibition ([15]; compound 0.1 µM): -7.9% | inhibition ([15]; compound 1.0 µM): 3.1% | inhibition ([16]; compound 0.1 µM): 1.4% | inhibition ([16]; compound 1.0 µM): 12.7% | inhibition ([17]; compound 0.1 µM): 21.8% | inhibition ([17]; compound 1.0 µM): 47.9% | inhibition ([18]; compound 0.1 µM): 3.1% | inhibition ([18]; compound 1.0 µM): 3.13% | inhibition ([19]; compound 0.1 µM): 1.6% | inhibition ([20]; compound 0.1 µM): -1.4% | inhibition ([20]; compound 1.0 µM): 3.9% | inhibition ([21]; compound 0.1 µM): 6.2% | inhibition ([21]; compound 1.0 µM): -3.8% | inhibition ([22]; compound 0.1 µM): 7.1% | inhibition ([22]; compound 1.0 µM): 1.8% | inhibition ([23]; compound 0.1 µM): 32.6% | inhibition ([23]; compound 1.0 µM): 64% | inhibition ([24]; compound 0.1 µM): 1.2% | inhibition ([24]; compound 1.0 µM): -1.7% | inhibition ([25]; compound 0.1 µM): 13.3% | inhibition ([25]; compound 1.0 µM): 9.2% | inhibition ([26]; compound 0.1 µM): 15.4% | inhibition ([26]; compound 1.0 µM): 16.5% | inhibition ([27]; compound 0.1 µM): -1.6% | inhibition ([27]; compound 1.0 µM): -6.4% | inhibition ([28]; compound 0.1 µM): -3.7% | inhibition ([28]; compound 1.0 µM): 6% | inhibition ([29]; compound 0.1 µM): -0.1% | inhibition ([29]; compound 1.0 µM): 24.9% | inhibition ([30]; compound 0.1 µM): 0.2% | inhibition ([30]; compound 1.0 µM): 1.3% | inhibition ([31]; compound 0.1 µM): -1.5% | inhibition ([31]; compound 1.0 µM): -7.5% | inhibition ([32]; compound 0.1 µM): -9.3% | inhibition ([33]; compound 0.1 µM): -2.2% | inhibition ([33]; compound 1.0 µM): 1.3% | inhibition ([34]; compound 0.1 µM): -6.7% | inhibition ([34]; compound 1.0 µM): 0.2%
Compound: Cn1cc(-c2cnc3ccc4ccc(CS(N)(=O)=O)cc4c(=O)c3c2)cn1
